From PMC5286435, “Honeybee locomotion is impaired by Am-CaV3 low voltage-activated Ca^2+ channel antagonist” (Scientific Reports, 2017)

Columns and labels:
Am-CaV3 [1] = target: T1, Am-CaV3 (Apis mellifera, UniProt A0ACM8RFK5); assay: two-electrode voltage clamp in Xenopus oocytes, Ba2+ current block; format: cell-based
T1 construct: gene LOC551883; full channel alpha1 subunit cloned from honeybee, mRNA injected in Xenopus oocytes, without CaVbeta; N-terminal region peptide CFDVPSSDGPSDPS (antibody antigen)
T1 sequence (A0ACM8RFK5 1-2566): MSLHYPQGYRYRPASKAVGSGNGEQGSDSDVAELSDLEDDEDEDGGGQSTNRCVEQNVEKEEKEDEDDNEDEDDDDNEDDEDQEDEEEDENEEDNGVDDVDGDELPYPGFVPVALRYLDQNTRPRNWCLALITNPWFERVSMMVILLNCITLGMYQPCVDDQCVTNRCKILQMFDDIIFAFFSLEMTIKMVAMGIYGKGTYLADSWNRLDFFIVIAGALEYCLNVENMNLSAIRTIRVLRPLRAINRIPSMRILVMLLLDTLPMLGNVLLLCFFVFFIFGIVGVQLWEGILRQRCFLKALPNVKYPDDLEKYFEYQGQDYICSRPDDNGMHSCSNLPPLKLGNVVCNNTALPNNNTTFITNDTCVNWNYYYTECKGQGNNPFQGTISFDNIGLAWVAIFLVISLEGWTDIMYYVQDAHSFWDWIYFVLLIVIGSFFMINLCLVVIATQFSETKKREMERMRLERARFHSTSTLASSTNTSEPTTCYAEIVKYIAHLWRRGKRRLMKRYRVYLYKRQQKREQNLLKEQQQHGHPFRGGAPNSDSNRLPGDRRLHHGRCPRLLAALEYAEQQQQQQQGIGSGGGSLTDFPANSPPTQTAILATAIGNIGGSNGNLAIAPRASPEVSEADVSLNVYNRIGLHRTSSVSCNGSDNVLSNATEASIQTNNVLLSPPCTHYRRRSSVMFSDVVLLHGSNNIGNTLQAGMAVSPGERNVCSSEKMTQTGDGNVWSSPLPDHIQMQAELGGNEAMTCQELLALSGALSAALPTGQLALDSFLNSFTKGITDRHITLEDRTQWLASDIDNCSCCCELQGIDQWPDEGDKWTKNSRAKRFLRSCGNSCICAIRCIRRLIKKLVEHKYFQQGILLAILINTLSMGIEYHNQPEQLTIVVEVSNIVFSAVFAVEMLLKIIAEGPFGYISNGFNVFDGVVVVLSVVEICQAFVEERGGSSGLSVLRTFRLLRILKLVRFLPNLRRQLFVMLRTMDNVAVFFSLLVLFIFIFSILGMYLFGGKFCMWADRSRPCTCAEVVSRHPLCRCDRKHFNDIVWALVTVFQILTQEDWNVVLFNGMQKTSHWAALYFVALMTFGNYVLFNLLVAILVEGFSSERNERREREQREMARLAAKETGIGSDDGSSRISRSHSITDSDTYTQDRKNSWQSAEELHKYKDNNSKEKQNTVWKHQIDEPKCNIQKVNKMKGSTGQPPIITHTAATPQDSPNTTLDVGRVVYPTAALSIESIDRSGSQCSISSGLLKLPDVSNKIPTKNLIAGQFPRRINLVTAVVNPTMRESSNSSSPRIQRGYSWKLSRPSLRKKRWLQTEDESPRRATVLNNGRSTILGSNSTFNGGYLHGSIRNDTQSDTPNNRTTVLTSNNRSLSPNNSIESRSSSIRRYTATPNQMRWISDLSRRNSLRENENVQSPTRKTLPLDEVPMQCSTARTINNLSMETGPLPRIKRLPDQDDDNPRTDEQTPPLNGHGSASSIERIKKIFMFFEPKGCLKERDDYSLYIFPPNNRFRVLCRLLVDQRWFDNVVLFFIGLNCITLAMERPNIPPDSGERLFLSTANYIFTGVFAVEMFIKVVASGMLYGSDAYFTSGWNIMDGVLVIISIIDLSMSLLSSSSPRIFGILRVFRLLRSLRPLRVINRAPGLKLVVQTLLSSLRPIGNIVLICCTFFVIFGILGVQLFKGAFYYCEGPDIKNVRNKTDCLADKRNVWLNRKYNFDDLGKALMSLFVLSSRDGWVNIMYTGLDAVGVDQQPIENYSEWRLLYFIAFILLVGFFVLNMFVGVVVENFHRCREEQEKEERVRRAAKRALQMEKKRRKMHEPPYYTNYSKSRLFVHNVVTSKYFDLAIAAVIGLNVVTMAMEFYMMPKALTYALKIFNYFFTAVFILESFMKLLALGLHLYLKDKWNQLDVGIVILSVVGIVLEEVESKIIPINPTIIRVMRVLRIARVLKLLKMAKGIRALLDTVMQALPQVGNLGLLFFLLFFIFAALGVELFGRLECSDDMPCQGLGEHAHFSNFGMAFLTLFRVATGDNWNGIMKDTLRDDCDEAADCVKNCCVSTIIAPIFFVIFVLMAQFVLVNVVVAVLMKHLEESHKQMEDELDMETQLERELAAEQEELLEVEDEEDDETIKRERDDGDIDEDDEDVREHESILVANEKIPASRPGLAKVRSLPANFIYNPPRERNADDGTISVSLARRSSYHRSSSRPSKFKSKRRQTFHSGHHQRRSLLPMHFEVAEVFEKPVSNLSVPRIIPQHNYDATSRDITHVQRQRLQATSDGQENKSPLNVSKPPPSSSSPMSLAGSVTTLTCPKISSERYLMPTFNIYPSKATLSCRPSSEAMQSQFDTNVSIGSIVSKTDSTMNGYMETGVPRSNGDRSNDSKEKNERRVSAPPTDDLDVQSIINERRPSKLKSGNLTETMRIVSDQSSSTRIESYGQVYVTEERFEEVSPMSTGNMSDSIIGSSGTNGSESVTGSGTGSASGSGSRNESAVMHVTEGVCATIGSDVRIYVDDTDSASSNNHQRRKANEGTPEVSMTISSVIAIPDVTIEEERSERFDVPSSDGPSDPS

Am-CaV3 [2] = target: T1, Am-CaV3; assay: as above; format: cell-based; details: inhibition (blocker), 10 mM Ba2+, reversible, code printed NNC55-0398 in text, NNC 55-0396 in Figure 1 legend

| SMILES | EC50 (Am-CaV3 [1]) [µM] | residual current at 10 μM (Am-CaV3 [2]) |
| --- | --- | --- |
| COCC(=O)O[C@]1(CCN(C)CCCc2nc3ccccc3[nH]2)CCc2cc(F)ccc2[C@@H]1C(C)C [Mi, mibefradil] | 3.5 |  |
| CC(C)[C@H]1c2ccc(F)cc2CC[C@@]1(CCN(C)CCCc1nc2ccccc2[nH]1)OC(=O)C1CC1 [NN, NNC 55-0396] |  | The mibefradil analogue NNC55-0398 (NN) also had a similar potency |
